{"source": "patent US20220332782A1", "about": "“Combined Artificial Cell Death/Reporter System Polypeptide for Chimeric Antigen Receptor Cell and Uses Thereof” (Century Therapeutics, Inc., priority 2021, published 2022)", "assay_type_in_all_cases": "cell-based", "key": {"[1]": {"system": "iPSCs expressing HSV-TK alone", "experiment": "ganciclovir killing of iPSCs transfected with HSV-TK alone (p1474), cell confluency by imaging", "details": "1 μM ganciclovir, 24 and 48 hours", "description": "(§1) The ability to induce cell death in cells expressing the HSV-TK-PSMA fusion or HSV-TK alone was next tested. […] The resulting plasmid (p1474; shown in FIG. 4) was sequenced and grown up for purification using the Qiagen maxi-prep kit. Next, iPSCs were transfected with the p1499 or p1474 plasmids. Transfected and untransfected cells were plated into 6 well dishes (2×10^5 cells/well) and treated with and without 1 μM ganciclovir and imaged at 24 and 48 hours to monitor cell growth. […] It will be appreciated by those skilled in the art that changes could be made to the embodiments described above without departing from the broad inventive concept thereof. It is understood, therefore, that this invention is not limited to the particular embodiments disclosed, but it is intended to cover modifications within the spirit and scope of the present invention as defined by the present description."}, "[2]": {"system": "HSV-TK (A168H)-T2A-PSMA engineered iPSCs", "experiment": "ganciclovir killing of HSV-TK (A168H)-T2A-PSMA engineered iPSCs, visual inspection", "details": "1 uM ganciclovir, 60 hours", "from_the_text": "(§2) FIGS. 6A-6B show results from cells transfected with a HSV-TK […]-T2A-PSMA transgene."}, "[3]": {"system": "iPSCs expressing the HSV-TK-PSMA fusion", "experiment": "ganciclovir killing of iPSCs transfected with HSV-TK-PSMA fusion (p1499), cell confluency by imaging", "details": "1 μM ganciclovir", "description": "as §1"}, "[4]": {"system": "untransfected iPSCs", "experiment": "ganciclovir treatment of untransfected iPSCs (WT control), cell confluency by imaging", "details": "1 μM ganciclovir", "description": "as §1"}, "[5]": {"system": "wild-type (WT; un-engineered) iPSCs", "experiment": "ganciclovir treatment of wild-type (un-engineered) iPSCs, visual inspection", "details": "increasing concentrations of ganciclovir, 60 hours", "from_the_text": "as §2"}}}
{"smiles": "Nc1nc(O)c2ncn(COC(CO)CO)c2n1", "note": "[ganciclovir]", "values": [{"measurement": "confluency compared with untreated cells", "setting": "[1]", "value": "reduced confluency"}, {"measurement": "killing", "setting": "[2]", "value": "~100", "unit": "%"}, {"measurement": "confluency compared with untreated cells", "setting": "[3]; 24 and 48 hours", "value": "reduced confluency"}, {"measurement": "cell confluency", "setting": "[3]; 48 hours, iPSCs expressing HSV-TK-PSMA", "value": 6, "unit": "%"}, {"measurement": "effect on cell growth", "setting": "[4]; 24 hours and 48 hours", "value": "no effect"}, {"measurement": "cell confluency", "setting": "[4]; 48 hours, WT cells", "value": 73, "unit": "%"}, {"measurement": "effect on un-engineered cells", "setting": "[5]", "value": "unaffected"}]}
